Test [1] deals with rats (male Spraque-Dawley (Harlan)). In words: Radial arm maze task in rats, in vivo test for learning and memory. Details: species or system rat. The settings on record: MK-801 0.1 mg/kg, i.p., compared to control (p<0.01). As to the method:
The test was performed as previously described (Zhang, H.-T., Crissman, A. M., Dorairaj, N. R., Chandler, L. J., and O'Donnell, J. M., Neuropsychopharmacology, 2000, 23, 198-204.). Five days after initial housing, rats (male Spraque-Dawley (Harlan) weighing 250 to 350 g) were placed in the eight-arm radial maze (each arm was 60×10×12 cm high; the maze was elevated 70 cm above the floor) for acclimation for two days. Rats were then placed individually in the center of the maze for 5 minutes with food pellets placed close to the food wells, and then, the next day, in the wells at the end of the arms; 2 sessions a day were conducted. Next, four randomly selected arms were then baited with one pellet of food each. The rat was restricted to the center platform (26 cm in diameter) for 15 seconds and then allowed to move freely throughout the maze until it collected all pellets of food or 10 minutes passed, whichever came first. Four parameters were recorded: 1) working memory errors, i.e., entries into baited arms that had already been visited during the same trial; 2) reference memory errors, i.e., entries into unbaited arms; 3) total arm entries; and 4) the test duration (seconds), i.e., the time spent in the collection of all the pellets in the maze. […]
(§1) All data were analyzed by analyses of variance (ANOVA); individual comparisons were made using Kewman-Keuls tests. […]

Test [2] concerns rat (Male Spraque-Dawley (Harlan)). In words: Passive avoidance in rats, in vivo test for learning and memory. As to conditions: retention test 24 hours after electric shock; MK-801 0.1 mg/kg pretreatment compared to the vehicle (p<0.001). As to the method:
The test was performed as previously described (Zhang, H.-T., Crissman, A. M., Dorairaj, N. R., Chandler, L. J., and O'Donnell, J. M., Neuropsychopharmacology, 2000, 23, 198-204.). The apparatus (Model E10-16SC, Coulbourn Instruments, Allentown, Pa.) consisted of a two-compartment chamber with an illuminated compartment connected to a darkened compartment by a guillotine door. The floor of the darkened compartment consisted of stainless steel rods through which an electric foot-shock could be delivered from a constant current source. All experimental groups were first habituated to the apparatus the day before the start of the experiment. During the training, the rat (Male Spraque-Dawley (Harlan) weighing 250 to 350 g) was placed in the illuminated compartment facing away from the closed guillotine door for 1 minute before the door was raised. The latency for entering the darkened compartment was recorded. After the rat entered the darkened compartment, the door was closed and a 0.5 mA electric shock was administered for 3 seconds. […] The latency for entering the darkened compartment was recorded for up to 180 seconds, at which time the trial was terminated.
as §1

The source of these data is patent US7335654B2, “Phosphodiesterase 4 inhibitors” (Memory Pharmaceuticals Corporation, priority 2002, dated 2008).

Molecules are shown by their SMILES.

With `C[C@]12N[C@H](Cc3ccccc31)c1ccccc12` [MK-801], in test [1], the “frequency of reference memory errors” value is “increased” and the “frequency of working memory errors” value is recorded as “increased”. For the same compound, the “latency for entering the darkened compartment” value in test [2] is reported as “markedly reduced”.
